Results reported in patent US20230151025A1, “SUBSTITUTED THIAZOLOPYRIDINES, SALTS THEREOF AND THEIR USE AS HERBICIDALLY ACTIVE SUBSTANCES” (Bayer Aktiengesellschaft, priority 2020, published 2023).

Legend:
Assay type in all cases: in vivo
[1] = test system: Kochia scoparia (KCHSC; Bassia scoparia); experiment: Herbicidal post-emergence action (B), 1280 g/ha
Method in brief: (§1)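 Post-emergence spray, one-leaf stage; WP/EC formulation, aqueous, 0.5% additive, 600 L/ha water. Sandy loam, greenhouse, doubly sown pots. Visual % rating vs untreated control at ~3 weeks (100% = dead).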

[2] = test system: Alopecurus myosuroides (ALOMY); experiment: Herbicidal post-emergence action (B), 1280 g/ha; conditions: rated visually after about 3 weeks vs untreated controls
Method in brief: as §1

[3] = test system: Abutilon theophrasti (ABUTH); experiment: Herbicidal post-emergence action (B), 1280 g/ha; conditions: rated visually after about 3 weeks vs untreated controls
Method in brief: as §1

Setaria viridis (SETVI) [4] = experiment: Herbicidal post-emergence action (B), 1280 g/ha; conditions: rated visually after about 3 weeks vs untreated controls
Method in brief: as §1

Poa annua (POAAN) = experiment: Herbicidal post-emergence action (B), 1280 g/ha; conditions: rated visually after about 3 weeks vs untreated controls
Method in brief: as §1

[5] = test system: Polygonum convolvulus (POLCO); experiment: Herbicidal pre-emergence action (C), 320 g/ha; conditions: ca. 3 weeks
Method in brief: (§2)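 Pre-emergence greenhouse test: visual damage rating at about 3 weeks relative to untreated plants, 100% meaning death and 0% no effect. Compounds, as wettable powders or emulsifiable concentrates with 0.5% additive, were applied at 320 g/ha (600 l water/ha) onto soil covering seeds sown in sandy loam.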

[6] = test system: Abutilon theophrasti (ABUTH); experiment: Herbicidal pre-emergence action (C), 320 g/ha; conditions: ca. 3 weeks
Method in brief: as §2

[7] = test system: Matricaria inodora (MATIN); experiment: Herbicidal pre-emergence action (C), 320 g/ha; conditions: ca. 3 weeks
Method in brief: as §2

[8] = test system: Polygonum convolvulus (POLCO); experiment: Herbicidal post-emergence action (D), 320 g/ha; conditions: ca. 3 weeks
Method in brief: (§3)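 Visual % herbicidal effect vs untreated controls (100% = dead, 0% = like control), rated ca. 3 weeks after post-emergence spray. Plants treated at single-leaf stage, 2 to 3 weeks after sowing in sandy loam; aqueous WP/EC spray, 0.5% additive, 600 l water/ha.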

[9] = test system: Echinochloa crus-galli (ECHCG); experiment: Herbicidal post-emergence action (D), 320 g/ha; conditions: ca. 3 weeks
Method in brief: as §3

[10] = test system: Alopecurus myosuroides (ALOMY); experiment: Herbicidal post-emergence action (D), 320 g/ha; conditions: ca. 3 weeks
Method in brief: as §3

[11] = test system: Abutilon theophrasti (ABUTH); experiment: Herbicidal post-emergence action (D), 320 g/ha; conditions: ca. 3 weeks
Method in brief: as §3

Setaria viridis (SETVI) [12] = experiment: Herbicidal post-emergence action (D), 320 g/ha; conditions: ca. 3 weeks
Method in brief: as §3

Veronica persica (VERPE) = experiment: Herbicidal post-emergence action (D), 320 g/ha; conditions: ca. 3 weeks
Method in brief: as §3

Viola tricolor (VIOTR) [13] = experiment: Herbicidal post-emergence action (D), 320 g/ha; conditions: ca. 3 weeks
Method in brief: as §3

[14] = test system: Amaranthus retroflexus (AMARE); experiment: Herbicidal post-emergence action (D), 320 g/ha; conditions: ca. 3 weeks
Method in brief: as §3

Avena fatua [15] = experiment: Herbicidal pre-emergence action (C), 320 g/ha; conditions: ca. 3 weeks
Method in brief: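 Weed and crop seeds sown in sandy loam; WP or EC formulations applied pre-emergence to the soil surface as aqueous suspension/emulsion with 0.5% additive at 600 l water/ha. Greenhouse-grown under optimum conditions; damage visually scored after ca. 3 weeks versus untreated controls (0% = as control, 100% = plants dead).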

[16] = test system: Matricaria inodora (MATIN); experiment: Herbicidal post-emergence action (B), 1280 g/ha; conditions: rated visually after about 3 weeks vs untreated controls
Method in brief: as §1

Viola tricolor (VIOTR) [17] = experiment: Herbicidal pre-emergence action (C), 320 g/ha; conditions: ca. 3 weeks
Method in brief: as §2

Stellaria media (STEME) [18] = experiment: Herbicidal pre-emergence action (C), 320 g/ha; conditions: visual grading after ca. 3 weeks vs untreated controls, 100% = plants have died off, 0% = as control plants
Method in brief: as §2

Lolium rigidum (LOLRI) = experiment: Herbicidal post-emergence action (D), 320 g/ha; conditions: ca. 3 weeks
Method in brief: as §3

Stellaria media (STEME) [19] = experiment: Herbicidal post-emergence action (D), 320 g/ha; conditions: ca. 3 weeks
Method in brief: as §3

[20] = test system: Digitaria sanguinalis (DIGSA); experiment: Herbicidal post-emergence action (D), 320 g/ha; conditions: ca. 3 weeks
From the text: (§4) Seeds of mono- and dicotyledonous weed plants and crop plants were sown, in plastic or organic planting pots, in sandy loam, covered with soil and grown in a greenhouse under controlled growth conditions. 2 to 3 weeks after sowing, the test plants were sprayed in the single-leaf stage. The compounds according to the invention, formulated in form of wettable powders (WP) or as emulsifiable concentrates (EC), were sprayed onto the green plant parts as aqueous suspension or emulsion, with the addition of 0.5% of an additive, at an application rate of 600 l of water/ha (converted). The test plants were placed in the greenhouse for ca. 3 weeks under optimum growth conditions, and then the effect of the preparations was assessed visually in comparison with untreated controls (herbicidal effect in percent (%): 100% effect=plants have died off, 0% effect=as control plants).
(§5) Tables D1 to D13 below show the effects of selected compounds of the general formula (I) according to table 1 on various harmful plants and an application rate corresponding to 320 g/ha obtained by the experimental procedure mentioned above.

Avena fatua [21] = experiment: Herbicidal post-emergence action (D), 320 g/ha; conditions: ca. 3 weeks
From the text: as §4, §5

Compound	herbicidal effect KCHSC [1] [%]	herbicidal activity ALOMY [2] [%]	herbicidal activity ABUTH [3] [%]	herbicidal activity SETVI (Setaria viridis (SETVI) [4]) [%]	herbicidal activity POAAN (Poa annua (POAAN)) [%]	herbicidal effect POLCO [5] [%]	herbicidal effect ABUTH [6] [%]	herbicidal effect MATIN [7] [%]	herbicidal effect POLCO [8] [%]	herbicidal effect ECHCG [9] [%]	herbicidal effect ALOMY [10] [%]	herbicidal effect ABUTH [11] [%]	herbicidal effect SETVI (Setaria viridis (SETVI) [12]) [%]	herbicidal effect VERPE (Veronica persica (VERPE)) [%]	herbicidal effect AMARE [14] [%]	herbicidal effect AVEFA (Avena fatua [15]) [%]	herbicidal activity MATIN [16] [%]	herbicidal effect VIOTR (Viola tricolor (VIOTR) [17]) [%]	herbicidal effect LOLRI (Lolium rigidum (LOLRI)) [%]	further results
Fc1ccccc1-c1nc2ncsc2cc1Cl [Example I-017]	90	100	90	100	100	90	80	90	90	80	90	80	80	90	100	90				herbicidal effect VIOTR (Viola tricolor (VIOTR) [13]): 90%
Fc1ccccc1-c1ccc2scnc2n1 [Example I-036, 5-(2-fluorophenyl)thiazolo[4,5-b]pyridine]				100	100	90	90	100	80	80			80			100	100	100	80	STEME, herbicidal effect in percent (%) (Stellaria media (STEME) [18]): 90%; herbicidal effect STEME (Stellaria media (STEME) [19]): 90%
Cc1cc2scnc2nc1-c1ccccc1Cl [Example I-045]	90	100	90	100	100	80	80		90	90	90	90	80	90	100	90		80	80	herbicidal effect DIGSA [20]: 90%
Cc1cc2scnc2nc1-c1ccsc1C [Example I-194]	100	100	90		100	90		90		90	90		80		80		100	90		herbicidal effect AVEFA (Avena fatua [21]): 80%
